# Laboratory results: article PMC12612990, “PNA5, a glycosylated angiotensin-(1−7) mas receptor agonist for vascular dementia: A two species toxicology and toxicokinetic study” (Toxicology Reports, 2025)
# Peptide text beside a SMILES is read from it. * marks the point of attachment. βGlc = OC[C@H]1O[C@@H](*)[C@H](O)[C@@H](O)[C@@H]1O
# Experiments:
# [1] = system: male Sprague Dawley rats; assay: Pulmonary safety parameters after a single subcutaneous dose in male Sprague Dawley rats; assay type: in vivo, rat; conditions: single s.c. dose 1, 5 or 40 mg/kg, n = 8 per group
# Protocol: Respiratory rate, tidal volume, and calculated minute volume were measured in male Sprague Dawley rats to measure pulmonary safety parameters after a single subcutaneous dose of 0, 1, 5, or 40 mg/kg PNA5 (n = 8 males per group).
# [2] = system: Beagle dogs; assay: 28-day repeat-dose subcutaneous toxicology study (main and recovery) in Beagle dogs
# [3] = system: male Beagle dogs; assay: Cardiovascular safety evaluation after a single subcutaneous dose in male Beagle dogs; assay type: in vivo, dog; conditions: single s.c. injection 1, 5 or 20 mg/kg
# Protocol: PNA5 -related cardiovascular effects were evaluated in male Beagle dogs at dose levels of 1, 5, or 20 mg/kg. To evaluate the effects of PNA5 when administered subcutaneously on the cardiovascular system the following parameters were measured including clinical observations, heart rate, arterial blood pressure (systolic, diastolic, and mean), pulse pressure, body temperature, and ECG waveforms (from which ECG waveform morphologies and ECG intervals PR, QRS, QT, and heart rate corrected QT [QTc] were derived).
# [4] = system: male Sprague Dawley rats; assay: Neurobehavioral evaluations after a single subcutaneous dose in male Sprague Dawley rats; assay type: in vivo, rat; conditions: single s.c. dose 1, 5 or 40 mg/kg, n = 8 per group
# Protocol: To evaluate the effects of PNA5 when administered subcutaneously on the central nervous system’s autonomic, neuromuscular, sensorimotor, and behavioral domains, neurobehavioral evaluations were performed in male Sprague Dawley rats treated with PNA5 at 0, 1, 5, or 40 mg/kg (n = 8 males per group). The neurobehavioral evaluations consisted of assessments of the central nervous system for activity, excitability, autonomic function, neuromuscular function, sensorimotor responses, and physiological function.
# [5] = system: Sprague Dawley rats; assay: 28-day repeat-dose subcutaneous toxicology study (main and recovery) in Sprague Dawley rats; assay type: in vivo, rat
# Protocol: Rats used in studies were inspected upon receipt for good health and were acclimated for 7 days at a minimum. Male and female rats were randomly selected for one of the four treatment groups upon receipt. Group 1 rats received vehicle control (0.9 % sodium chloride (saline) for injection, USP) subcutaneously for 28 days. Rats in groups 2–4 received PNA5 at 1, 5, or 40 mg/kg/day subcutaneously for 28 days (Table 1). Rats for all studies were dosed once daily for 28 consecutive days via subcutaneous bolus injection. The first day of dosing was based on day 1 body weights. Toxicokinetic study animals were dosed in the same fashion as for the main and recovery study animals.
# Rats are observed at least twice daily (morning and afternoon) beginning upon arrival through termination/release for mortality. For the toxicology main study, 10 rats per sex were randomly assigned to groups 1–4. 5 rats per sex were assigned to groups 1 (control) and group 4 (PNA5 at 40 mg/kg/day) for the toxicology recovery study. The number of animals used for the toxicokinetic groups was calculated to meet a sufficient number of animals to provide samples for toxicokinetic analysis while minimizing the number of blood collections per animal.
# After 28 treatments, animals that were a part of the main and toxicokinetic study were scheduled for euthanasia on day 29, during which the necropsy measures were collected for the main study animals. Rats that were a part of the recovery animal study started the recovery period on day 29 and were scheduled for euthanasia on day 57, during which the same necropsy measures were collected. Animals were euthanized for humane reasons or at study termination via carbon dioxide inhalation followed by exsanguination via the vena cava for necropsy. Main Study and Recovery animals were fasted overnight prior to the scheduled necropsy. Following the final blood collection, animals in the toxicokinetic studies were euthanized by inhalation of carbon dioxide but were not exsanguinated for necropsy.
# The following parameters and end points were evaluated in this study: mortality, clinical observations, body weights, body weight gains, food consumption, ophthalmology, clinical pathology parameters (hematology, coagulation, clinical chemistry, and urinalysis), toxicokinetic parameters, organ weights, and macroscopic and microscopic examinations.
# Animals were observed daily. On days with dosing, observations were made 10–30 min postdosing. During the dosing, observations included but were not limited to the following: Changes in skin on the whole animal and at the injection site, fur, eyes, mucous membrane, and respiratory functions.
# A detailed clinical observation was performed 1 week prior to randomization, on the date of randomization, and then weekly during the study period, with the last observation on the day of the scheduled necropsy.
# The injection site was shaved and marked for identification and evaluation during the study. The injection site was collected at necropsy.
# Rats were weighed within 4 days of receipt, on the day of randomization, daily during the study, and on the day of the scheduled necropsies. Dogs were weighed one week prior to randomization (± 2 days), on the day of randomization, on Day 1 (prior to dosing), weekly (± 2 days) during the study period, on the day prior to the scheduled necropsies, and on the day of the scheduled necropsy.
# Rats' food consumption was measured quantitatively once weekly beginning on Day 1 and persisting throughout the study. Dogs' food consumption was measured daily beginning on Day 1 and persisting throughout the study.
# Ophthalmic examinations were conducted by a board-certified veterinary ophthalmologist using an indirect ophthalmoscope and slit lamp biomicroscope. Prior to examination, animals will be treated with a mydriatic agent. […]
# [6] = dogs, 1, 5, 20 mg/kg/day s.c. for 28 days
# [7] = dogs, main study, day 29 necropsy
# [8] = rats, 1, 5, 40 mg/kg/day s.c. for 28 days
# [9] = rats, main study, day 29 necropsy
# [10] = rats, recovery study, 40 mg/kg/day vs control
structure (smiles),measurement,setting,value
"CC[C@H](C)[C@H](NC(=O)[C@H](Cc1ccc(O)cc1)NC(=O)[C@@H](NC(=O)[C@H](CCCNC(=N)N)NC(=O)[C@@H](N)CC(=O)O)C(C)C)C(=O)N[C@@H](Cc1c[nH]cn1)C(=O)N[C@@H](CO[C@@H]1O[C@H](CO)[C@@H](O)[C@H](O)[C@H]1O)C(N)=O [PNA5, Ang-1–6-Ser-O-Glu-NH2] (H-DRVYIHS(βGlc)-NH2)","respiratory rate, tidal volume and calculated minute volume",[1],no effect
same,"tolerability (mortality, adverse findings)","[2]; Beagle dogs, main and recovery studies, s.c. bolus once daily 28 days, 1, 5, 20 mg/kg/day",well tolerated at all doses with no effects on mortality or adverse findings
same,no-observed-adverse-effect-level (NOAEL),"[2]; Beagle dogs, s.c. once daily for 28 days",20 mg/kg/day
same,body weights and body weight gains,[2]; [6],unaffected
same,clinical observations,[2]; [6],no test article-related clinical observations
same,electrocardiography,[2]; [6],no test article-related clinical observations or effects
same,food consumption,[2]; [6],unaffected
same,organ weights,[2]; [6],no test article-related clinical observations or effects
same,survival,"[2]; dogs, 1, 5 and 20 mg/kg/day s.c. for 28 days",All animals survived until the scheduled euthanasia
same,ophthalmic examinations,"[2]; dogs, all test article-treated groups",No ophthalmic lesions indicative of toxicity were observed
same,"hematology, coagulation, clinical chemistry and urinalysis parameters","[2]; dogs, main study",unaffected
same,macroscopic findings,[2]; [7],No test article-related macroscopic findings were noted
same,microscopic findings,[2]; [7],No test article-related microscopic findings were noted
same,macroscopic findings,"[2]; dogs, recovery study, day 43",No test article-related macroscopic findings were noted
same,microscopic findings,"[2]; dogs, recovery study, day 43",No test article-related microscopic findings were noted
same,organ weights,"[2]; dogs, recovery study, day 43",no test article-related organ weight changes
same,subcutaneous injection sites with dark red subcutaneous foci,"[2]; dogs, treated group animals, main study, lacked a dose response, considered an effect of subcutaneous injection",5 of 96
same,"clinical observations, heart rate, arterial blood pressure, pulse pressure, body temperature and ECG waveforms",[3],no effect
same,"neurobehavioral assessments of the central nervous system (activity, excitability, autonomic, neuromuscular, sensorimotor, physiological function)",[4],nor were there observed PNA5-related effects
same,"tolerability (mortality, adverse findings)","[5]; Sprague-Dawley rats, main and recovery studies, s.c. bolus once daily 28 days, 1, 5, 40 mg/kg/day",well tolerated at all doses with no effects on mortality or adverse findings
same,mixed cell infiltration at the subcutaneous dorsoscapular injection site,"[5]; rats, 40 mg/kg/day group females, main study, considered within the expected response to the injection procedure",increase in incidence and severity of mixed cell infiltration
same,prostate/seminal vesicle weight normalized to body weight or brain weight vs control,"[5]; rats, 40 mg/kg/day group males, recovery study, considered incidental, absolute weights not different",significantly higher
same,body weights and body weight gains,[5]; [8],unaffected
same,food consumption,[5]; [8],unaffected
same,clinical observations,"[5]; rats, 1, 5, 40 mg/kg/day subq for 28 days, main and recovery study",no test article-related clinical observations
same,survival,"[5]; rats, 1, 5 and 40 mg/kg/day s.c. for 28 days",All animals survived until the scheduled euthanasia
same,ophthalmic examinations,"[5]; rats, all test article-treated groups",No ophthalmic lesions indicative of toxicity were observed
same,"hematology, coagulation, clinical chemistry and urinalysis parameters","[5]; rats, main study, all dose levels",unaffected
same,macroscopic findings,[5]; [9],no test article-related macroscopic findings
same,microscopic findings,[5]; [9],no test article-related microscopic findings
same,organ weights,[5]; [9],no test article-related organ weight changes
same,microscopic findings,"[5]; rats, recovery study",No test article-related microscopic findings were noted
same,macroscopic findings,[5]; [10],no test article-related macroscopic findings
same,organ weights,[5]; [10],no test article-related organ weight changes
